Each structure is given as a SMILES string.

Assay type in all cases: cell-based
Data set [1] deals with Human aortic endothelial cells (HAEC). The data set can be described thus: LD50 (toxicity to cells; visual signs of toxicity scored in the VCAM-1 assay). As to the method: (§1) Human aortic endothelial cells (HAEC) were purchased from Clonetics and maintained in EGM media (Clonetics) supplemented with 5% fetal bovine serum (FBS). In a typical experiment, cells were seeded in 96-well plates. The next day cells were stimulated with TNF-alpha (1 ng/ml) purchased from Boehringer Mannheim in the presence or absence of compounds dissolved in dimethylsulphoxide (DMSO). To establish a dose curve for each compound, four concentrations in 2 fold increments were used. Cells were exposed to TNF-α and compounds for approximately 16 hours. The next day, cells were examined under microscope to score for visual signs of toxicity.
(§2) The degree of inhibition of various compounds, including the compounds prepared in the foregoing examples, using the assays described in Examples 6-9, are provided in Table IX. Results are expressed in micromolar quantities.

The test system of data set [2] is VCAM-1. The experiment in a line: VCAM-1 assay: enzyme immunoassay of TNF-alpha induced VCAM-1 expression in endothelial cells. Conditions: Homo sapiens, Endothelial cell; HAEC stimulated with TNF-alpha (1 ng/ml), about 16 hours with compound; read-out: VCAM-1 IC50 or % inhibition at. As to the method: The VCAM-1 assay is an enzyme immunoassay to detect tumor necrosis factor alpha (TNF-alpha) induced Vascular Cell Adhesion Molecule (VCAM-1) expression in endothelial cells.
as §1
Media was discarded and the cells were washed once with Hanks buffered saline solution (HBSS)/phosphate buffered solution (PBS) 91:1). Primary mouse monoclonal antibody against VCAM-1 purchased from Southern Biotechnology Associates (0.25 μg/ml in HBSS/PBS+5% FBS) was added and incubated at 37° C. for 30 minutes. Cells were washed with HBSS/PBS three times, and secondary antibody horse radish peroxidase (HRP)-conjugated goat anti-mouse IgG purchased from Southern Biotechnology Associates (1:500 in HBSS/PBS+5% FBS) was added and incubated at 37° C. for 30 minutes. Cells were washed with HBSS/PBS four times and peroxidase substrate 3.3′,5,5′-tetramethyl-benzidine (TMB) was added and incubated in the dark at room temperature until there was adequate blue color development. The length of incubation time was typically 5-15 minutes. 2 N sulfuric acid was added to stop the color development and the data was collected by reading the absorbance at O.D. 450 nm. The result was expressed as the percentage of control sample (cells stimulated by TNF without any compound).
as §2

The subject of data set [3] is ApoB/HepG2. The data set can be described thus: Lipid screen: ApoB ELISA on media of treated HEPG2 cells. Conditions: Homo sapiens; HEPG2 cells treated 24 hours; ApoB accumulation in media as percentage of control; read-out: ApoB/Hep G2 IC50 or % inhibition at. As to the method:
HEPG2 cell was started in 10 ml of MEM, 10% FBS, 1 mM Sodium Pyruvate. The cells were incubated in a tissue culture incubator. The cells were split into 4×96-wells plate in MEM, 10% FBS, 1 mM Sodium Pyruvate and allowed to grow to about 50% confluency and then removed.
The cells were treated with the desired concentration of compounds in 100 μl DMEM, 1% RSA for 24 hours. The compounds are dissolved in DMSO.
On the same day, 4×96-wells NuncImmunoSorb plate is coated with 100 μl of mouse anti-human ApoB monoclonal 1D1 (1:1000 dilution in 1×PBS, pH 7.4). The coating is allowed to stand overnight.
The coated plate is washed 3 times with 1×PBS, pH 7.4, −0.05% Tween 20. 100 μl of the standards is added to the selected wells. ApoB standards are prepared at 6.25, 3.12, 1.56, 0.78, 0.39 ng, and each concentration is done in triplicates.
90 μl of 1×PBS, pH 7.4, −0.05% Tween 20 is added to each well corresponding to the sample. 10 μl of media is transferred from the treated HEPG2 plates to the ApoB ELISA plate. The plate is incubated at room temperature for 2 hours, rocking gently.
Wash the coated plate 3× with 1×PBS, pH 7.4, −0.05% Tween 20. Add 100 μl of sheep anti-human ApoB polyclonal from Boehringer Mannheim. (1:2000 dilution in 1×PBS, pH 7.4, −0.05% Tween 20). Incubate at room temperature for 1 hour, rocking gently. Wash the coated plate 3× with 1×PBS, pH 7.4, −0.05% Tween 20. Add 100 μl of rabbit anti-sheep IgG (1:2000 dilution in 1×PBS, pH 7.4, −0.05% Tween 20). Incubate at room temperature for 1 hour, rocking gently. Wash the coated plate 3× with 1×PBS, pH 7.4, −0.05% Tween 20. Add 100 μl of substrate (10 ml of distilled water, 100 μl of TMB (10 mg/ml), and 1 μl of hydrogen peroxide). Allow color to emerge and stop reaction with 25 ul of 8N sulfuric acid. Wells are read with MicroPlate Reader @ […]. Graph accumulation of ApoB in media as a percentage of control for each sample and their concentration. A determination of IC50 is obtained from the graph.

On to `CN(C)C(=O)c1ccc(CSc2cc(C(C)(C)C)c(O)c(C(C)(C)C)c2)cc1`, for which the “LD50 at” value in data set [1] turned out to be 50.0 µM. The IC50 came to 12.5 µM in data set [2] and 85 µM in data set [3].
Turning to `CC(C)(Sc1cc(C(C)(C)C)c(O)c(C(C)(C)C)c1)Sc1cc(C(C)(C)C)c(OCC(O)CS(=O)(=O)O)c(C(C)(C)C)c1` (centres unmarked), in data set [1], the “LD50 at” value turned out to be 50.0 µM. Besides, in data set [2], the IC50 was 10 µM.
On to `CC(C)(Sc1cc(C(C)(C)C)c(O)c(C(C)(C)C)c1)Sc1cc(C(C)(C)C)c(OCC(O)COC(=O)C(O)C(O)C(O)C(O)CO)c(C(C)(C)C)c1` (centres unmarked), for which, in data set [1], the “LD50 at” value turned out to be 50.0 µM. Further, the IC50 in data set [2] was 7 µM; in data set [3], 30 µM.
The corresponding values for `CC(C)(Sc1cc(C(C)(C)C)c(O)c(C(C)(C)C)c1)Sc1cc(C(C)(C)C)c(OC[C@@H](O)[C@@H](O)[C@@H](O)CO)c(C(C)(C)C)c1` are 25.0 µM, 12.5 µM and 6 µM.
Turning to `CCN(CC)C(=O)c1ccc(CSc2cc(C(C)(C)C)c(O)c(C(C)(C)C)c2)cc1`, the IC50 in data set [2] is 12.5 µM; in data set [3], 40 µM.
On to `CC(C)(Sc1cc(C(C)(C)C)c(O)c(C(C)(C)C)c1)Sc1cc(C(C)(C)C)c(OCC2OC(O)[C@@H](O)[C@H]2O)c(C(C)(C)C)c1` (some centres unmarked), for which the IC50 in data set [2] worked out at 8 µM.

The values above are taken from patent publication US20050171028A1, “Thioketals and thioethers for inhibiting the expression of VCAM-1” (Atherogenics Pharmaceuticals, Inc., priority 2000, published 2005).
